Experimental data published in ChEMBL document CHEMBL3046681, “Synthesis and insecticidal evaluation of propesticides of benzoylphenylureas” (2005).

Experiments:
Assay type in all cases: functional
[1] = tested on: Mythimna separata; assay: Insecticidal activity against fourth instar larvae of Mythimna separata (Oriental armyworm) in compound treated corn leaves assessed as mortality at 0.5 mg/kg by foliar application
[2] = tested on: Mythimna separata; assay: Insecticidal activity against fourth instar larvae of Mythimna separata (Oriental armyworm) in compound treated corn leaves assessed as mortality at 5 mg/kg by foliar application
[3] = tested on: Mythimna separata; assay: Insecticidal activity against fourth instar larvae of Mythimna separata (Oriental armyworm) in compound treated corn leaves assessed as mortality at 100 mg/kg by foliar application
[4] = tested on: Mythimna separata; assay: Insecticidal activity against fourth instar larvae of Mythimna separata (Oriental armyworm) in compound treated corn leaves assessed as mortality at 50 mg/kg by foliar application
[5] = tested on: Mythimna separata; assay: Insecticidal activity against fourth instar larvae of Mythimna separata (Oriental armyworm) in compound treated corn leaves assessed as mortality at 25 mg/kg by foliar application
[6] = tested on: Mythimna separata; assay: Insecticidal activity against fourth instar larvae of Mythimna separata (Oriental armyworm) in compound treated corn leaves assessed as mortality at 500 mg/kg by foliar application
[7] = tested on: Mythimna separata; assay: Insecticidal activity against fourth instar larvae of Mythimna separata (Oriental armyworm) in compound treated corn leaves assessed as mortality at 10 mg/kg by foliar application
[8] = tested on: Mythimna separata; assay: Insecticidal activity against fourth instar larvae of Mythimna separata (Oriental armyworm) in compound treated corn leaves assessed as mortality at 200 mg/kg by foliar application
[9] = tested on: Mythimna separata; assay: Insecticidal activity against fourth instar larvae of Mythimna separata (Oriental armyworm) in compound treated corn leaves assessed as mortality at 0.2 mg/kg by foliar application
[10] = tested on: Mythimna separata; assay: Insecticidal activity against fourth instar larvae of Mythimna separata (Oriental armyworm) in compound treated corn leaves assessed as mortality at 1 mg/kg by foliar application
[11] = tested on: Mythimna separata; assay: Insecticidal activity against fourth instar larvae of Mythimna separata (Oriental armyworm) in compound treated corn leaves assessed as mortality at 0.1 mg/kg by foliar application

| SMILES | mortality at 0.5 mg/kg [1] | mortality at 5 mg/kg [2] | mortality at 100 mg/kg [3] | mortality at 50 mg/kg [4] | mortality at 25 mg/kg [5] | mortality at 500 mg/kg [6] | mortality at 10 mg/kg [7] | mortality at 200 mg/kg [8] | mortality at 0.2 mg/kg [9] | mortality at 1 mg/kg [10] | mortality at 0.1 mg/kg [11] |
| --- | --- | --- | --- | --- | --- | --- | --- | --- | --- | --- | --- |
| CCOC(=O)N(C(=O)NC(=O)c1c(F)cccc1F)c1ccc(Cl)cc1 | 0% | 0% | 100% | 100% | 100% | 100% | 0% | 100% | 0% | 0% |  |
| O=C(NC(=O)N(C(=O)OCc1ccccc1)c1ccc(Cl)cc1)c1c(F)cccc1F | 0% | 0% | 70% | 0% | 0% | 100% | 0% | 100% | 0% | 0% |  |
| CC(C)(C)OC(=O)N(C(=O)NC(=O)c1c(F)cccc1F)c1ccc(Cl)cc1 | 0% | 95% | 100% | 100% | 100% | 100% | 100% | 100% | 0% | 5% |  |
| CCOC(=O)N(C(=O)NC(=O)c1c(F)cccc1F)c1ccc(C(F)(F)F)cc1 | 0% | 0% | 100% | 100% | 5% | 100% | 0% | 100% | 0% | 0% |  |
| O=C(NC(=O)N(C(=O)OCc1ccccc1)c1ccc(C(F)(F)F)cc1)c1c(F)cccc1F | 0% | 0% | 0% | 0% | 0% | 100% | 0% | 30% | 0% | 0% |  |
| CC(C)(C)OC(=O)N(C(=O)NC(=O)c1c(F)cccc1F)c1ccc(C(F)(F)F)cc1 | 0% | 75% | 100% | 100% | 100% | 100% | 100% | 100% | 0% | 0% |  |
| CCOC(=O)N(C)SN(C(=O)NC(=O)c1c(F)cccc1F)c1ccc(Cl)cc1 |  | 100% | 100% | 100% | 100% | 100% | 100% | 100% | 5% | 20% | 0% |
| CCOC(=O)N(C)SN(C(=O)NC(=O)c1c(F)cccc1F)c1ccc(C(F)(F)F)cc1 | 95% | 100% | 100% | 100% | 100% | 100% | 100% | 100% | 85% | 100% | 0% |
| CN(SN(C(=O)NC(=O)c1c(F)cccc1F)c1ccc(C(F)(F)F)cc1)C(=O)OC(C)(C)C | 100% | 100% | 100% | 100% | 100% | 100% | 100% | 100% | 35% | 100% | 0% |
| CN(SN(C(=O)NC(=O)c1c(F)cccc1F)c1ccc(Cl)cc1)C(=O)OCc1ccccc1 | 55% | 100% | 100% | 100% | 100% | 100% | 100% | 100% | 0% | 85% | 0% |
| O=C(NC(=O)c1c(F)cccc1F)Nc1ccc(Cl)cc1 [DIFLUBENZURON] | 100% | 100% | 100% | 100% | 100% | 100% | 100% | 100% | 45% | 100% | 0% |
